Data published in ChEMBL document CHEMBL1138676, “Liver-selective glucocorticoid antagonists: a novel treatment for type 2 diabetes” (J Med Chem, 2004).
pKi: −log10 of the molar value.

Legend:
Estrogen receptor = biological target: T1, Estrogen receptor (Homo sapiens, UniProt P03372); test: Inhibition of human Estrogen receptor alpha
T1 sequence (P03372 whole entry): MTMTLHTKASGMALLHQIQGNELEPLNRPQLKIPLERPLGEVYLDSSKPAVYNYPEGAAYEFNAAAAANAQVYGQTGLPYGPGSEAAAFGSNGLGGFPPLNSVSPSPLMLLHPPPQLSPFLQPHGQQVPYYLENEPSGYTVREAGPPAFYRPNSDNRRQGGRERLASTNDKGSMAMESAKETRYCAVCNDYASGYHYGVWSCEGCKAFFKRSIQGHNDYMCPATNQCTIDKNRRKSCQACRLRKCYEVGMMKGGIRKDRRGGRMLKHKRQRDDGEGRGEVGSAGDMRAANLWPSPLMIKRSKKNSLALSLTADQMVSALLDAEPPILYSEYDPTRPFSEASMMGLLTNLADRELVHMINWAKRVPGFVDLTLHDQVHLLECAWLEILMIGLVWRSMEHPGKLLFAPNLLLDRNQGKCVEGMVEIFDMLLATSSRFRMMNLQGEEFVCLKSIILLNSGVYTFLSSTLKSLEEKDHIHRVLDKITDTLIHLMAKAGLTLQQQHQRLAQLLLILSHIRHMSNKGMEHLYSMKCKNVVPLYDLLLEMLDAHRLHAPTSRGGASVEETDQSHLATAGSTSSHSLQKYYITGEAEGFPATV

[1] = biological target: Glucocorticoid receptor (Rattus norvegicus) (UniProt P06536); test: Inhibition of glucocorticoid receptor mediated tyrosine amino transferase activity
Sequence of Glucocorticoid receptor (Rattus norvegicus) (P06536 whole entry, looked up): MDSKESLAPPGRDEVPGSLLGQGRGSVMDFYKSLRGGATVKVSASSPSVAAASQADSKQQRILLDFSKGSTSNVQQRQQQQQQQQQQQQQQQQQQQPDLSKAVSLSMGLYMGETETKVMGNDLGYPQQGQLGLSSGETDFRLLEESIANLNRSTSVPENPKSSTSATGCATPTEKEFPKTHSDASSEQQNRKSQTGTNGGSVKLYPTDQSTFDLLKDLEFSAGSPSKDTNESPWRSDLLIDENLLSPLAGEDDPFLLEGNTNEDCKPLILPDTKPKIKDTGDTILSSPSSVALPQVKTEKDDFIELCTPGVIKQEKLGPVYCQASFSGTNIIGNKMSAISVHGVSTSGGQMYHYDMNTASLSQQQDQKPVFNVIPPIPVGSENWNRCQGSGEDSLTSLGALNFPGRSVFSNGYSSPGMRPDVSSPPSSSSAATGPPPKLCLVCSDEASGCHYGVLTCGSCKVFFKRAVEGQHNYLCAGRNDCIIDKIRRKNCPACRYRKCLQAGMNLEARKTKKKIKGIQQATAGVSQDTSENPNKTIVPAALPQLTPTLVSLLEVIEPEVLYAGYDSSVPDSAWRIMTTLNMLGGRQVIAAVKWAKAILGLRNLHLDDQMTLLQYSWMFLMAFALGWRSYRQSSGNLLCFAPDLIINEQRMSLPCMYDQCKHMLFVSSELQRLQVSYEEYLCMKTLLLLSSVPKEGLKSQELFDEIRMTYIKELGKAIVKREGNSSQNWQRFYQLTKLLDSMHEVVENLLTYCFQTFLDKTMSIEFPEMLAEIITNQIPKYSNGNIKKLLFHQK

Glucocorticoid receptor = biological target: T2, Glucocorticoid receptor (Homo sapiens, UniProt P04150); test: Inhibition of human glucocorticoid receptor
T2 sequence (P04150 whole entry): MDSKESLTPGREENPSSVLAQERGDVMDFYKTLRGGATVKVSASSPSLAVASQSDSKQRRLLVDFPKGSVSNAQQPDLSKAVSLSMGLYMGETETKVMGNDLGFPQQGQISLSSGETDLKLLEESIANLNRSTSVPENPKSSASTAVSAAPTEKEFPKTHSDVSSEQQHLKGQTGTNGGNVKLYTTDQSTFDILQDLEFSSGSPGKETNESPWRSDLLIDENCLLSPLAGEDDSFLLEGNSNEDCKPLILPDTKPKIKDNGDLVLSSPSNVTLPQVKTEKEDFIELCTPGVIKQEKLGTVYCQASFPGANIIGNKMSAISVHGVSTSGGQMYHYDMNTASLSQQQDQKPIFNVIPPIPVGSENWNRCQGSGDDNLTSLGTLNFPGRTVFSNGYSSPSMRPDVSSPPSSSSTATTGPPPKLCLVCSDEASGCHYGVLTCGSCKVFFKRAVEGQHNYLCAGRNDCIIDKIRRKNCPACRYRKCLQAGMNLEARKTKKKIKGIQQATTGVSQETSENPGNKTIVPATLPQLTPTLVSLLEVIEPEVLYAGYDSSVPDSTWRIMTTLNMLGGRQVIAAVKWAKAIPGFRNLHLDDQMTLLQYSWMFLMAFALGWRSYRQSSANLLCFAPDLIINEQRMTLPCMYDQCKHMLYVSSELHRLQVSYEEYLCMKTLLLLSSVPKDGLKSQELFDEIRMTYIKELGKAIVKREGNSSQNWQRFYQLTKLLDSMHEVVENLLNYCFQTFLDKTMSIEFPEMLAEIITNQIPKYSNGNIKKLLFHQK

[2] = biological target: T3, Thyroid hormone receptor alpha (Homo sapiens, UniProt P10827); test: Inhibition of human Thyroid hormone receptor alpha
T3 sequence (P10827 whole entry): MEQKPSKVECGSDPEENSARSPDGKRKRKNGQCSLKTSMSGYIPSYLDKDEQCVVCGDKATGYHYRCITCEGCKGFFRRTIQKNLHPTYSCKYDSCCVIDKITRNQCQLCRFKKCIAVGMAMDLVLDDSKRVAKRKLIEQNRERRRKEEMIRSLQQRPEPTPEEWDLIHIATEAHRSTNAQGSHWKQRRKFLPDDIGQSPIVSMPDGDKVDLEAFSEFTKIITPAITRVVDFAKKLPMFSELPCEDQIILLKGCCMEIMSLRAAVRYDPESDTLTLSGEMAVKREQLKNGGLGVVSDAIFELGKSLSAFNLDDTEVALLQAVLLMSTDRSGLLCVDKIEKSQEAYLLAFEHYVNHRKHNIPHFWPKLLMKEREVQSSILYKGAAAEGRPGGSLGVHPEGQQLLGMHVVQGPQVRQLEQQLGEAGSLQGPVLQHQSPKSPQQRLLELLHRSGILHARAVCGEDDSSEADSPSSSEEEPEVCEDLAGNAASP

[3] = biological target: T4, Thyroid hormone receptor beta (Homo sapiens, UniProt P10828); test: Inhibition of human Thyroid hormone receptor beta
T4 sequence (P10828 whole entry): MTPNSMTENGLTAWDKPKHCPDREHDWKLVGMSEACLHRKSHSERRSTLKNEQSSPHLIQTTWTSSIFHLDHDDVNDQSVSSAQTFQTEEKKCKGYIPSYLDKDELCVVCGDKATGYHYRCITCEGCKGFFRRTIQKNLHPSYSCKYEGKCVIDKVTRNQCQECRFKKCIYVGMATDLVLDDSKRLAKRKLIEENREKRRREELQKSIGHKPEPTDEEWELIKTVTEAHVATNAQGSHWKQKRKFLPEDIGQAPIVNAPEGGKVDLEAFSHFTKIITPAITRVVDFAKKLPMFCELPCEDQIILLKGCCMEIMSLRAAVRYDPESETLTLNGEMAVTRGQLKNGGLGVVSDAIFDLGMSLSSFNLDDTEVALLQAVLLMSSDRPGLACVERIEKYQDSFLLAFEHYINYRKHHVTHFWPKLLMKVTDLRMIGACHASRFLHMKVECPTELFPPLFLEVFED

SMILES	pKi (Estrogen receptor)	pKi [1]	pKi (Glucocorticoid receptor)	pKi [2]	pKi [3]
C#C[C@]1(O)CC[C@H]2[C@@H]3CCC4=CC(=O)CCC4=C3[C@@H](c3ccc(N(C)CCOC4CC[C@@]5(C)[C@@H](C4)C[C@@H](O)[C@@H]4[C@@H]5C[C@H](O)[C@]5(C)[C@@H]([C@H](C)CCC(=O)O)CC[C@@H]45)cc3)C[C@@]21C (stereo in doubt; form 2)	7.92	7.25	9.57	6.17	5.82
C#C[C@]1(O)CC[C@H]2[C@@H]3CCC4=CC(=O)CCC4=C3[C@@H](c3ccc(N(C)CCOCCO[C@H]4CC[C@@]5(C)[C@@H](C4)C[C@@H](O)[C@@H]4[C@@H]5C[C@H](O)[C@]5(C)[C@@H]([C@H](C)CCC(=O)O)CC[C@@H]45)cc3)C[C@@]21C	7.85	7.25	9.77	< 5.90	< 5.65
C#C[C@]1(O)CC[C@H]2[C@@H]3CCC4=CC(=O)CCC4=C3[C@@H](c3ccc(N(C)C(=O)CNC(=O)OC4CC[C@@]5(C)[C@@H](C4)C[C@@H](O)[C@@H]4[C@@H]5C[C@H](O)[C@]5(C)[C@@H]([C@H](C)CCC(=O)O)CC[C@@H]45)cc3)C[C@@]21C (some centres undefined)	7.96	6.47	8.68	5.96	< 5.65
C#C[C@]1(O)CC[C@H]2[C@@H]3CCC4=CC(=O)CCC4=C3[C@@H](c3ccc(N(C)CCCC(=O)N(C)C4CC[C@@]5(C)[C@@H](C4)C[C@@H](O)[C@@H]4[C@@H]5C[C@H](O)[C@]5(C)[C@@H]([C@H](C)CCC(=O)O)CC[C@@H]45)cc3)C[C@@]21C (some centres undefined)	8.21	7.22	9.57	< 5.90	< 5.65
C#C[C@]1(O)CC[C@H]2[C@@H]3CCC4=CC(=O)CCC4=C3[C@@H](c3ccc(N(C)CCOC4CC[C@@]5(C)[C@@H](C4)C[C@@H](O)[C@@H]4[C@@H]5C[C@H](O)[C@]5(C)[C@@H]([C@H](C)CCC(=O)NCC(=O)O)CC[C@@H]45)cc3)C[C@@]21C (some centres undefined)		6.74	9.38	< 5.90	< 5.65
C#C[C@]1(O)CC[C@H]2[C@@H]3CCC4=CC(=O)CCC4=C3[C@@H](c3ccc(N(C)CCC[C@H]4[C@H](O)CC[C@@]5(C)[C@@H]4C[C@@H](O)[C@@H]4[C@@H]5C[C@H](O)[C@]5(C)[C@@H]([C@H](C)CCC(=O)O)CC[C@@H]45)cc3)C[C@@]21C	7.34	6.47	9.10		
C#C[C@]1(O)CC[C@H]2[C@@H]3CCC4=CC(=O)CCC4=C3[C@@H](c3ccc(N(C)CCOC4CC[C@@]5(C)[C@@H](C4)C[C@@H](O)[C@@H]4[C@@H]5C[C@H](O)[C@]5(C)[C@@H]([C@H](C)CCC(=O)NCCS(=O)(=O)O)CC[C@@H]45)cc3)C[C@@]21C (some centres undefined)	8.00	6.80	9.57	< 5.90	< 5.65
C#C[C@]1(O)CC[C@H]2[C@@H]3CCC4=CC(=O)CCC4=C3[C@@H](c3ccc(N(C)CCOC4CC[C@@]5(C)[C@@H](C4)C[C@@H](O)[C@@H]4[C@@H]5C[C@H](O)[C@]5(C)[C@@H]([C@H](C)CCC(=O)O)CC[C@@H]45)cc3)C[C@@]21C (stereo in doubt; form 1)	7.96	6.66	9.17	< 5.90	< 5.65
C#C[C@]1(O)CC[C@H]2[C@@H]3CCC4=CC(=O)CCC4=C3[C@@H](c3ccc(N(C)C(=O)CNC(=O)O[C@@H]4C[C@@H]5CC(O)CC[C@]5(C)[C@H]5C[C@H](O)[C@]6(C)[C@@H]([C@H](C)CCC(=O)O)CC[C@H]6[C@H]45)cc3)C[C@@]21C (some centres undefined)	7.03	6.64	8.96	< 5.90	< 5.65
C#C[C@]1(O)CC[C@H]2[C@@H]3CCC4=CC(=O)CCC4=C3[C@@H](c3ccc(N(C)CCNC(=O)OC4CC[C@@]5(C)[C@@H](C4)C[C@@H](O)[C@@H]4[C@@H]5C[C@H](O)[C@]5(C)[C@@H]([C@H](C)CCC(=O)O)CC[C@@H]45)cc3)C[C@@]21C (some centres undefined)	< 6.70	6.48	9.41	< 5.90	< 5.65
C#C[C@]1(O)CC[C@H]2[C@@H]3CCC4=CC(=O)CCC4=C3[C@@H](c3ccc(N(C)CCCS(=O)(=O)N(C)C4CC[C@@]5(C)[C@@H](C4)C[C@@H](O)[C@@H]4[C@@H]5C[C@H](O)[C@]5(C)[C@@H]([C@H](C)CCC(=O)O)CC[C@@H]45)cc3)C[C@@]21C (some centres undefined)	7.72	7.22	9.38		
C#C[C@]1(O)CC[C@H]2[C@@H]3CCC4=CC(=O)CCC4=C3[C@@H](c3ccc(N(C)C(C)=O)cc3)C[C@@]21C	7.47		9.40	6.10	< 5.65
C#C[C@]1(O)CC[C@H]2[C@@H]3CCC4=CC(=O)CCC4=C3[C@@H](c3ccc(N(C)CCCOC4CC[C@@]5(C)[C@@H](C4)C[C@@H](O)[C@@H]4[C@@H]5C[C@H](O)[C@]5(C)[C@@H]([C@H](C)CCC(=O)O)CC[C@@H]45)cc3)C[C@@]21C (some centres undefined)	8.06	7.00	9.66	< 5.90	5.72
C#C[C@]1(O)CC[C@H]2[C@@H]3CCC4=CC(=O)CCC4=C3[C@@H](c3ccc(N(C)C(=O)CC[C@H](NC(=O)CC[C@@H](C)[C@H]4CC[C@H]5[C@@H]6[C@H](O)C[C@@H]7C[C@H](O)CC[C@]7(C)[C@H]6C[C@H](O)[C@]45C)C(=O)O)cc3)C[C@@]21C	7.14	6.46	8.52	5.92	< 5.65
C#C[C@]1(O)CC[C@H]2[C@@H]3CCC4=CC(=O)CCC4=C3[C@@H](c3ccc(N(C)CCNC(=O)N(C)C4CC[C@@]5(C)[C@@H](C4)C[C@@H](O)[C@@H]4[C@@H]5C[C@H](O)[C@]5(C)[C@@H]([C@H](C)CCC(=O)O)CC[C@@H]45)cc3)C[C@@]21C (some centres undefined)	6.85	7.47	9.52	< 5.90	< 5.65
